Reference: patent US11661400B2, “NADPH oxidase inhibitors, pharmaceutical composition comprising the same, and application thereof” (TAIWANJ PHARMACEUTICALS CO., LTD., priority 2018, dated 2023)

Experiments:
NOX1 = target: T1, NOX1 (Homo sapiens, UniProt Q9Y5S8); test: NOX1 HT29 cell-based assay (luminol/HRP luminescence); details: HT29 cells, DMSO = 0%, GKT137831 = 100%
T1 construct: endogenous in cells; host or cells: HT29
T1 sequence (Q9Y5S8 1-564): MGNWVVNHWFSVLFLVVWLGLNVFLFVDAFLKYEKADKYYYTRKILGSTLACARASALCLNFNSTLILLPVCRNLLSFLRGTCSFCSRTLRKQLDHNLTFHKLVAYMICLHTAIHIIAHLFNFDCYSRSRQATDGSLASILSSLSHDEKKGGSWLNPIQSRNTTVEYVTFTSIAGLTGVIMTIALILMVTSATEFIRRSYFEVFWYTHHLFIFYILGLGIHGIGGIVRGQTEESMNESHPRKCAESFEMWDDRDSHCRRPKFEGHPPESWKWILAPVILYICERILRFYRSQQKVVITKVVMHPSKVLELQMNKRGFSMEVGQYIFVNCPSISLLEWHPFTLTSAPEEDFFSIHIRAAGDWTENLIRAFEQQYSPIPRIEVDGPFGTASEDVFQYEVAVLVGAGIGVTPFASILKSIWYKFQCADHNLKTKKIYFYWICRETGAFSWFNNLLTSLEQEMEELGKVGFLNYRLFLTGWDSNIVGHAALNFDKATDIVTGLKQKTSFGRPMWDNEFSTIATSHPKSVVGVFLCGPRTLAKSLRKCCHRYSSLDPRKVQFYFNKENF
T1 sequence (P13498 2-195 partner limits assumed): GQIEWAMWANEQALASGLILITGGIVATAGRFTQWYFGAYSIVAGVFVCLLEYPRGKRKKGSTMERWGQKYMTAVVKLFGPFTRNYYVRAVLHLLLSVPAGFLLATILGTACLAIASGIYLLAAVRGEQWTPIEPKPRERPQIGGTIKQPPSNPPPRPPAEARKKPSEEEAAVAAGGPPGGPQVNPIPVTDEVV
Summary of the method: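 HT29 cells (1-2×10^5 per well) pretreated 30-60 min at 37 °C with compound at 100 nM and 1000 nM final, in duplicate, 0.1% DMSO. ROS read as luminol (100 μM)/HRP (0.4 U) luminescence. Activity normalised to DMSO (0%) and GKT137831 (100%).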

NOX2 = target: T2, NOX2 (Homo sapiens, UniProt P04839); test: NOX2 HL60 cell-based assay (PMA oxidative burst, L012 chemiluminescence); details: DMSO-differentiated HL-60 cells, PMA-stimulated
T2 construct: HL-60 cells, rich in NOX2 expression; endogenous in cells; host or cells: DMSO-differentiated HL-60
T2 sequence (P04839 2-570 limits assumed): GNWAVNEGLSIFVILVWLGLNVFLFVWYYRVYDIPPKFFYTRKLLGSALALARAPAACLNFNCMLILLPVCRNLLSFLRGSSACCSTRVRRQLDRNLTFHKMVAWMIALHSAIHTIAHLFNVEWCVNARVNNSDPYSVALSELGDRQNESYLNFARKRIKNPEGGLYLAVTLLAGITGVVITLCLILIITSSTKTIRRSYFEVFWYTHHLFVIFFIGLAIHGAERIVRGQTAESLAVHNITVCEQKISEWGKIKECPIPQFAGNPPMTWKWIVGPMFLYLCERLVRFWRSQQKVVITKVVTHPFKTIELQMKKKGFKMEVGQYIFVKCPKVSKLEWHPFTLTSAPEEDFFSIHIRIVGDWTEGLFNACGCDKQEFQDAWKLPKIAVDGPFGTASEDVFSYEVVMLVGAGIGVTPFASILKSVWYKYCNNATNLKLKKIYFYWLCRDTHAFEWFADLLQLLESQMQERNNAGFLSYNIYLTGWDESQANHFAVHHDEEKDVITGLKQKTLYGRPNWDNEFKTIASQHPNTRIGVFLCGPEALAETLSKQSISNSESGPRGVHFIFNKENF
T2 sequence (P13498 2-195 partner limits assumed): T1 sequence (P13498 2-195 partner limits assumed)
Summary of the method: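 DMSO-differentiated HL-60 cells (2.5×10^5/well) with 100 μM L012 preincubated with compound 30-60 min at 37 °C in the dark. Oxidative burst triggered by 10 ng/mL PMA; superoxide chemiluminescence read every 5 min for 60 min.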

NOX4 = target: T3, NOX4 (Homo sapiens, UniProt Q9NPH5); test: NOX4 HEK293 overexpression cell-based assay (Amplex Red H2O2); details: HEK293 cells stably overexpressing NOX4, DMSO = 0, GKT137831 = 100
T3 construct: expressed in transfected cells
T3 sequence (Q9NPH5 1-578): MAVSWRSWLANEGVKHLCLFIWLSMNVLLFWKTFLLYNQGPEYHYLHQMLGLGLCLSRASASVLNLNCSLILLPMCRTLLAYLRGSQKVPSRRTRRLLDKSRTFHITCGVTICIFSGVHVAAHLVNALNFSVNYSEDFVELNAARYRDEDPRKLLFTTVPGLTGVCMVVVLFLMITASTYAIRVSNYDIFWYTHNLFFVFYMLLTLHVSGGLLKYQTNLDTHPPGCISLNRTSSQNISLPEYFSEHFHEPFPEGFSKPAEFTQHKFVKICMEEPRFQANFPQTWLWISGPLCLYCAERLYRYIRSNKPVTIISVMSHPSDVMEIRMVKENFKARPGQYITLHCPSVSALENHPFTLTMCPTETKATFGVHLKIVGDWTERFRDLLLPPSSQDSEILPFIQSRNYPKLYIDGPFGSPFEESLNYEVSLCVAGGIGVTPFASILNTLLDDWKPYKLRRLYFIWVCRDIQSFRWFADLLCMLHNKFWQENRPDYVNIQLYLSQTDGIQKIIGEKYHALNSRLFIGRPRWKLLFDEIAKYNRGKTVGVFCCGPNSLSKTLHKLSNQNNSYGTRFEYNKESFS
T3 sequence (P13498 2-195 partner limits assumed): T1 sequence (P13498 2-195 partner limits assumed)
Summary of the method: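 HEK293 cells stably overexpressing NOX4 (3×10^4) preincubated 30 min at 37° C with compound in KRPG buffer, then mixed with Amplex Red reagent solution (50 μM Amplex Red, 0.1 units/mL HRP) for 90 min at 37° C in the dark. Supernatant fluorescence read at 530/590 nm; DMSO set to 0 and GKT137831 to 100.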

Row | inhibition at 0.1 µM (NOX1; HT-29, 100 nM) [%] | inhibition at 0.1 µM (NOX2; HL-60, 100 nM) [%] | inhibition at 1 µM (NOX1; HT-29, 1000 nM) [%] | inhibition at 1 µM (NOX2; HL-60, 1000 nM) [%] | inhibition at 0.1 µM (NOX4; HEK293, 100 nM) [%] | SMILES | % Inhibition NOX1 (NOX1; 1000 nM) | % Inhibition NOX2 (NOX2; 100 nM) | % Inhibition NOX2 (NOX2; 1000 nM) | % Inhibition NOX4 (NOX4; 100 nM, 0.1 µM) | % Inhibition NOX4 (NOX4; 1000 nM) | % Inhibition NOX1 (NOX1; 100 nM) | % Inhibition NOX4 (NOX4; 100 nM) | % Inhibition NOX4 (NOX4; 1000 nM, 1 µM) | % Inhibition NOX2 (NOX2; 100 nM, 0.1 µM) | % Inhibition NOX2 (NOX2; 1000 nM, 1 µM)
1 | ≤ 19 | – | – | – | – | COc1cc2[nH]c(-c3ccc(Cl)cc3)c(O)c(=O)c2cc1OC [Compound 45] | A (the percent of inhibition of NOX by the compounds is larger than or equals to 80%) | D (the percent of inhibition of NOX by the compounds is smaller than or equals to 19% o) | D (the percent of inhibition of NOX by the compounds is smaller than or equals to 19% o) | C (the percent of inhibition of NOX by the compounds ranges from 2000 to 49%) | B (the percent of inhibition of NOX by the compounds ranges from 50% o to 79% o) | – | – | – | – | –
2 | – | – | – | – | – | COc1cc2[nH]c(-c3ccccc3Cl)c(O)c(=O)c2cc1OC [Compound 46] | A (the percent of inhibition of NOX by the compounds is larger than or equals to 80%) | D (the percent of inhibition of NOX by the compounds is smaller than or equals to 19% o) | A (the percent of inhibition of NOX by the compounds is larger than or equals to 80%) | – | – | A (the percent of inhibition of NOX by the compounds is larger than or equals to 80%) | B (the percent of inhibition of NOX by the compounds ranges from 50% o to 79% o) | B (the percent of inhibition of NOX by the compounds ranges from 50% o to 79% o) | – | –
3 | – | – | – | – | – | COc1cc2[nH]c(-c3ccccc3OC(F)(F)F)c(O)c(=O)c2cc1OC [Compound 48] | A (the percent of inhibition of NOX by the compounds is larger than or equals to 80%) | – | – | – | – | A (the percent of inhibition of NOX by the compounds is larger than or equals to 80%) | C (the percent of inhibition of NOX by the compounds ranges from 2000 to 49%) | A (the percent of inhibition of NOX by the compounds is larger than or equals to 80%) | C (the percent of inhibition of NOX by the compounds ranges from 2000 to 49%) | B (the percent of inhibition of NOX by the compounds ranges from 50% o to 79% o)
4 | – | ≤ 19 | – | – | – | COc1cc2[nH]c(-c3ccc(Cl)cc3Cl)c(O)c(=O)c2cc1OC [Compound 49] | A (the percent of inhibition of NOX by the compounds is larger than or equals to 80%) | – | A (the percent of inhibition of NOX by the compounds is larger than or equals to 80%) | – | B (the percent of inhibition of NOX by the compounds ranges from 50% o to 79% o) | A (the percent of inhibition of NOX by the compounds is larger than or equals to 80%) | C (the percent of inhibition of NOX by the compounds ranges from 2000 to 49%) | – | – | –
5 | ≥ 80 | – | ≥ 80 | ≥ 80 | ≤ 19 | COc1cc2[nH]c(-c3ccccc3OC)c(O)c(=O)c2cc1OC.Cl [Compound 51] | – | C (the percent of inhibition of NOX by the compounds ranges from 2000 to 49%) | – | – | B (the percent of inhibition of NOX by the compounds ranges from 50% o to 79% o) | – | – | – | – | –
6 | – | – | – | – | – | COc1cc2[nH]c(-c3ccccc3OC(F)(F)F)c(O)c(=O)c2cc1OC.Cl [Compound 52] | A (the percent of inhibition of NOX by the compounds is larger than or equals to 80%) | C (the percent of inhibition of NOX by the compounds ranges from 2000 to 49%) | B (the percent of inhibition of NOX by the compounds ranges from 50% o to 79% o) | – | B (the percent of inhibition of NOX by the compounds ranges from 50% o to 79% o) | A (the percent of inhibition of NOX by the compounds is larger than or equals to 80%) | C (the percent of inhibition of NOX by the compounds ranges from 2000 to 49%) | – | – | –
